Tests used:
[1] = test system: Heliothis virescens, egg, tobacco budworm; test: Tobacco budworm egg test, dipped cotton leaf and eggs; format: in vivo; design: key: 0: no effect; 10-25% kill; 26-35% kill; 36-45% kill; 46-55% kill; 56-65% kill; 66-75% kill; 76-85% kill; 86-99% kill; 9: 100% kill; details: mortality rating after 3 days
Outline: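 Compound dissolved at 10,000 ppm in 35% aqueous acetone, diluted with water. A cotton leaf and a cheesecloth square with roughly 50-100 eggs aged 6-30 h are each dipped for about 3 s, then combined and kept humid. Mortality counted after 3 days and rated on a scale.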

[2] = test system: Spodoptera eridania, 3rd instar larvae, southern armyworm; test: Southern armyworm 3rd instar test, dipped limabean leaf; format: in vivo; details: for ARMYWORM Day 5: rating at 5 days; for ARMYWORM Day 3: rating at 3 days
Outline: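 Compound dissolved in 35% acetone/water at 10,000 ppm stock, diluted with water. Sieva limabean leaves dipped 3 s, dried, and exposed to ten 3rd instar larvae on damp filter paper. Mortality, reduced feeding and molting interference scored at 3 and 5 days on a rating scale.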

[3] = test system: Spodoptera eridania, 3rd instar larvae, southern armyworm; test: Southern armyworm systemic uptake (stem systemic) test; format: in vivo; design: key: 0: no effect; 10-25% kill; 26-35% kill; 36-45% kill; 46-55% kill; 56-65% kill; 66-75% kill; 76-85% kill; 86-99% kill; 9: 100% kill; details: cut stem in emulsion 3 days
[4] = test system: Diabrotic undecimpunctata howardi, 3rd instar southern corn rootworm; test: Southern corn rootworm soil test; format: in vivo; design: key: 0: no effect; 10-25% kill; 26-35% kill; 36-45% kill; 46-55% kill; 56-65% kill; 66-75% kill; 76-85% kill; 86-99% kill; 9: 100% kill; details: mortality rating after 6 days
Outline: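 Compound applied in acetone to talc at 1.25 and 0.25 mg active ingredient per jar (about 50 and 10 kg/ha), dried, then mixed with millet seed and moist soil. Ten 3rd instar larvae added per jar; mortality counted at 6 days, with missing larvae scored dead. Results rated on a scale.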

[5] = test system: Tetranychus urticae (OP-resistant strain), 2-spotted spider mite; test: 2-spotted spider mite test, dipped infested limabean plants; format: in vivo; design: key: 0: no effect; 10-25% kill; 26-35% kill; 36-45% kill; 46-55% kill; 56-65% kill; 66-75% kill; 76-85% kill; 86-99% kill; 9: 100% kill; details: for OP-RESISTANT MITES Egg: mite eggs
Description: (§1) Test solutions are prepared by dissolving the test compound in a 35% acetone in water mixture to give a concentration of 10,000 ppm. Subsequent dilutions are made with water as needed.
Tetranychus urticae (OP-resistant strain), 2-spotted spider mite
Sieva limabean plants with primary leaves expanded to 7-8 cm are selected and cut back to one plant per pot. A small piece is cut from an infested leaf taken from the main colony and placed on each leaf of the test plants. This is done about 2 hours before treatment to allow the mites to move over to the test plant and to lay eggs. The size of the cut, infested leaf is varied to obtain about 100 mites per leaf. At the time of test treatment, the piece of leaf used to transfer the mites is removed and discarded. The newly mite-infested plants are dipped in the test solution for 3 seconds with agitation and set in the hood to dry. After 2 days one leaf is removed and mortality counts are made. After 5 days, another leaf is removed and observations are made of mortality of the eggs and/or newly emerged nymphs.
(§2) All of the above tests are rated according to the rating scale shown below.

[6] = test system: Aphis fabae, mixed instar, bean aphid; test: Bean aphid spray test on nasturtium; format: in vivo; design: key: 0: no effect; 10-25% kill; 26-35% kill; 36-45% kill; 46-55% kill; 56-65% kill; 66-75% kill; 76-85% kill; 86-99% kill; 9: 100% kill; details: 100 ppm
Description: as §1
Aphis fabae, mixed instar, bean aphid
Pots containing single nasturtium plants (Tropaeolum sp.) about 5 cm tall are infested with about 100-200 aphids one day prior to treatment. Each pot is sprayed with the test solution for 2 revolutions of a 4 rpm turntable in a hood, using a #154 DeVilbiss atomizer. The spray tip is held about 15 cm from the plant and the spray directed so as to give complete coverage of the plants and the aphids. The sprayed pots are set on their sides on white enamel trays and mortality estimates are made after 2 days.
as §2

[7] = test system: Empoasca abrupta, adult, western potato leafhopper; test: Western potato leafhopper contact test, dipped limabean leaf; format: in vivo; design: key: 0: no effect; 10-25% kill; 26-35% kill; 36-45% kill; 46-55% kill; 56-65% kill; 66-75% kill; 76-85% kill; 86-99% kill; 9: 100% kill
Description: as §1
Empoasca abrupta, adult, western potato leafhopper
A Sieva limabean leaf about 5 cm long is dipped in the test solution for 3 seconds with agitation and placed in a hood to dry. The treated leaf is placed in a 100 x 10 mm petri dish containing a moist filter paper and about 10 adult leafhoppers are added. After 2 days, mortality counts are made.
as §2

[8] = test system: Empoasca abrupta, adult, western potato leafhopper; test: Western potato leafhopper systemic uptake test; format: in vivo; design: key: 0: no effect; 10-25% kill; 26-35% kill; 36-45% kill; 46-55% kill; 56-65% kill; 66-75% kill; 76-85% kill; 86-99% kill; 9: 100% kill; details: 100 ppm
Description: Empoasca abrupta, adult, western potato leafhopper Systemic Uptake
An emulsion containing 0.1 gm of the test material, 0.2 gm of Emulphor EL-620® emulsifier, 10 mL of acetone and 90 mL of water is prepared and diluted 10-fold with water to give a 100 ppm emulsion. Subsequent 10-fold dilutions are made with water as needed. Sieva limabean plants, with the primary leaves expanded to a length of 7-8 cm, are cut off at least 3 cm above the soil level to avoid contamination with soil bacteria which will cause decay of the stem during the test. The cut stem is placed in the test emulsion and wrapped with a bit of cotton to hold the stem off the bottom of the bottle and to limit evaporation. The treated stem is maintained for 3 days at 27°C to allow the test compound to be taken up into the plant. Following this, one leaf is removed from the plant and placed in a 100 x 10 mm petri dish containing a moist filter paper and about 10 adult leafhoppers as described above. Mortality counts are made after 2 days.
as §2

[9] = test system: Spodoptera eridania, 3rd instar larvae, southern armyworm; test: Southern armyworm 7-day residual test; format: in vivo; details: R designates Residual: 7-day residual foliage, concentration not given
Outline: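 Compound was dissolved in 35% aqueous acetone (10,000 ppm stock) and diluted with water before treating lima bean leaves. The leaves were aged 7 days under high-intensity greenhouse lamps (14 h day). Third-instar Spodoptera eridania larvae were then assayed on the foliage and rated on a scale.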

[10] = test system: Heliothis virescens, 3rd instar tobacco budworm; test: Tobacco budworm 3rd instar test, dipped cotton cotyledons; format: in vivo; design: key: 0: no effect; 10-25% kill; 26-35% kill; 36-45% kill; 46-55% kill; 56-65% kill; 66-75% kill; 76-85% kill; 86-99% kill; 9: 100% kill; details: mortality rating after 3 days
Description: as §1
Heliothis virescens, 3rd instar tobacco budworm
Cotton cotyledons are dipped in the test solution and allowed to dry in a hood. When dry, each is cut into quarters and ten sections are placed individually in 30 mL plastic medicine cups containing a 5-7mm long piece of damp dental wick. One 3rd instar caterpillar is added to each cup and the cup is sealed with MYLAR® film. Treatments are maintained for 3 days before a mortality count and observation of reduction in feeding damage are made.
as §2

Venturia inaequalis = test: In vivo fungicidal activity, Apple Scab (AS); details: rate 400 ppm, host plants sprayed then inoculated, rating, averaged
Description: (§3) Test compounds are dissolved in acetone and diluted with deionized water containing about 0.05% TWEEN 20®, a polyoxyethylene sorbitan monolaurate surfactant manufactured by Atlas Chemical Industries, to give a concentration of 400 ppm. Subsequent dilutions are made with an 0.05% aqueous solution of TWEEN 20®.
(§4) Host plants are sprayed with test solution, dried and inoculated with fungi. When disease symptom development is optimal, the plants are rated for disease control according to the rating scale shown below. Each test contains inoculated treated plants, inoculated untreated plants and a reference standard.
(§5) When more than one test is run, the data are averaged.

Plasmopara viticola = test: In vivo fungicidal activity, Grape Downy Mildew (GDM); details: rate 400 ppm, rating, averaged
Description: as §3, §4, §5

Cercospora beticola = test: In vivo fungicidal activity, Sugarbeet Cercospora (SBC); details: rate 400 ppm, rating, averaged
Description: as §3, §4, §5

[11] = test system: Puccinia recondita, tritici; test: In vivo fungicidal activity, Wheat Leaf Rust (WLR); details: rate 400 ppm, rating, averaged
Description: as §3, §4, §5

[12] = test system: Erysiphe graminis, tritici; test: In vivo fungicidal activity, Wheat Powdery Mildew (WPM); details: rating, averaged
Description: as §3, §4, §5

[13] = 300 ppm, mite nymphs, rating scale 0-9
[14] = 100 ppm, contact, rating scale 0-9
[15] = systemic uptake, rating scale 0-9

For `N#Cc1c(Cl)c(C(F)(F)F)n(CSC(=N)N)c1-c1ccc(Cl)cc1` [Example 3], the “TOBACCO BUDWORM Egg” value ([1]; 100 ppm) was 0, the “TOBACCO BUDWORM Egg” value ([1]; 1000 ppm) was 5 (56-65% kill) and the “ARMYWORM Day 5” value ([2]; 10 ppm) was 9 (100% kill). For the same molecule, the “ARMYWORM Day 5” value ([2]; 100 ppm) was 9 (100% kill), the “ARMYWORM Day 5” value ([2]; 1000 ppm) was 9 (100% kill) and the “ARMYWORM Stem Sys” value [3] was 0. For the same molecule, the “SOUTHERN CORN ROOTWORM” value ([4]; 1 (ppm as headed)) was 0, the “SOUTHERN CORN ROOTWORM” value ([4]; 10 (ppm as headed)) was 0 and the “SOUTHERN CORN ROOTWORM” value ([4]; 50 (ppm as headed)) was 9 (100% kill). The “OP-RESISTANT MITES Nymph” value ([5]; 10 ppm, rating after 5 days) was 0, the “OP-RESISTANT MITES Nymph” value ([5]; 300 ppm, rating after 5 days) was 9 (100% kill) and the APHIDS ([6]; spray, mortality rating after 2 days) was 0. For the same molecule, the “LEAFHOPPER Contact” value ([7]; 10 ppm, mortality rating after 2 days) was 9 (100% kill), the “LEAFHOPPER Contact” value ([7]; 100 ppm, mortality rating after 2 days) was 9 (100% kill) and the “LEAFHOPPER Systemic” value ([8]; cut stem in emulsion 3 days, mortality rating after 2 days) was 0.

In the case of `CN(C)C(=S)SCn1c(-c2ccc(Cl)c(Cl)c2)c(Br)c(C(F)(F)F)c1C(F)(F)F` [Example 33], the “TOBACCO BUDWORM Egg” value ([1]; 1000 ppm) is reported as 0, the “ARMYWORM Day 3” value ([2]; 10 ppm) is reported as 9 (100% kill) and the “ARMYWORM Day 5” value ([2]; 10 ppm) is reported as 9 (100% kill). For the same molecule, the “ARMYWORM Day 3” value ([2]; 100 ppm) was 9 (100% kill), the “ARMYWORM Day 5” value ([2]; 100 ppm) was 9 (100% kill) and the “ARMYWORM Day 3” value ([2]; 1000 ppm) was 9 (100% kill). For the same molecule, the “ARMYWORM Day 5” value ([2]; 1000 ppm) was 9 (100% kill), the “ARMYWORM Day 3 R” value ([9]; rating at 3 days) was 9 (100% kill) and the “ARMYWORM Day 5 R” value ([9]; rating at 5 days) was 9 (100% kill). The “ARMYWORM Stem Sys” value [3] was 0, the “OP-RESISTANT MITES Adult” value ([5]; 10 ppm, rating scale 0-9) was 0 and the “OP-RESISTANT MITES Egg” value ([5]; 10 ppm, rating scale 0-9) was 0. The “OP-RESISTANT MITES Nymph” value ([5]; 10 ppm, mite nymphs, rating scale 0-9) was 0, the “OP-RESISTANT MITES Adult” value ([5]; 100 ppm, rating scale 0-9) was 0 and the “OP-RESISTANT MITES Egg” value ([5]; 100 ppm, rating scale 0-9) was 8 (86-99% kill). For the same molecule, the “OP-RESISTANT MITES Nymph” value ([5]; 100 ppm, mite nymphs, rating scale 0-9) was 0, the “OP-RESISTANT MITES Adult” value ([5]; 300 ppm, rating scale 0-9) was 7 (76-85% kill) and the “OP-RESISTANT MITES Egg” value ([5]; 300 ppm, rating scale 0-9) was 0. For the same molecule, the “OP-RESISTANT MITES Nymph” value [5, 13] was 0, the APHIDS ([6]; rating scale 0-9) was 0 and the “LEAFHOPPER Contact” value ([7]; 10 ppm, contact, rating scale 0-9) was 0. For the same molecule, the “LEAFHOPPER Contact” value [7, 14] was 8 (86-99% kill) and the “LEAFHOPPER Systemic” value [8, 15] was 0.

`CC(=O)SCn1c(Br)c(Br)c(C#N)c1Br` [Example 34] was tested, and the “TOBACCO BUDWORM Egg” value ([1]; 1000 ppm) was 8 (86-99% kill), the “TOBACCO BUDWORM 3rd Instar” value ([10]; 100 ppm) was 0 and the “TOBACCO BUDWORM 3rd Instar” value ([10]; 1000 ppm) was 9 (100% kill). For the same molecule, the “ARMYWORM Stem Sys” value [3] was 0, the “SOUTHERN CORN ROOTWORM” value ([4]; 50 (ppm as headed)) was 0 and the “OP-RESISTANT MITES Adult” value ([5]; 300 ppm, rating scale 0-9) was 0. For the same molecule, the “OP-RESISTANT MITES Egg” value ([5]; 300 ppm, rating scale 0-9) was 0, the “OP-RESISTANT MITES Nymph” value [5, 13] was 0 and the APHIDS ([6]; rating scale 0-9) was 8 (86-99% kill). The “LEAFHOPPER Contact” value [7, 14] was 0 and the “LEAFHOPPER Systemic” value [8, 15] was 0.

`CC(C)OP(=S)(OC(C)C)SCn1c(Br)c(Br)c(C#N)c1Br` [O,O-diisopropyl S-(2,3,5-tribromo-4-cyanopyrrole-1-yl)methyl ester phosphorodithioic acid] was tested, and the “Disease Control AS” value (Venturia inaequalis) was 0 (0), the “Disease Control GDM” value (Plasmopara viticola) was 0 (0) and the “Disease Control SBC” value (Cercospora beticola) was 0 (0). The “Disease Control WLR” value [11] was 0 (0), the “Disease Control WPM” value ([12]; rate 25 ppm) was 0 (0) and the “Disease Control WPM” value ([12]; rate 100 ppm) was 4.0. For the same molecule, the “Disease Control WPM” value ([12]; rate 400 ppm) was 7.0.

Reference: EP0545103A1, “Insecticidal, acaricidal and molluscicidal 1-(substituted) thioalkylpyrroles” (priority 1991, dated 1993)
